Converted amounts (≈) assume the structure as drawn. Where two headings read alike, the source gives them in different places.
Columns and labels:
Test in all cases: MIC, broth micro dilution assay (NCCLS)
Assay type in all cases: cell-based
[1] = test system: Staphylococcus aureus A15090
[2] = test system: Enterococcus faecalis A20688
[3] = test system: Streptococcus pneumoniae A28272
[4] = Mueller-Hinton medium, 35° C., 18 hours
[5] = 50% Mueller-Hinton medium and 50% Todd Hewitt medium, 35° C., 18 hours

| SMILES | MIC (μg/mL) against Staphylococcus aureus A15090 [1] [µg/mL] | MIC (μg/mL) against Enterococcus faecalis A20688 [2] [µg/mL] | MIC (μg/mL) against Streptococcus pneumoniae A28272 [3] [µg/mL] | MIC (μg/mL) against Staphylococcus aureus A15090 [1, 4] [µg/mL] | MIC (μg/mL) against Enterococcus faecalis A20688 [2, 4] [µg/mL] | MIC (μg/mL) against Streptococcus pneumoniae A28272 [3, 5] [µg/mL] | other results |
| --- | --- | --- | --- | --- | --- | --- | --- |
| COC(C)=C1NC(=O)C(C(C)O)NC(=O)c2csc(n2)-c2cc(O)c(-c3nc(C(=O)NC(CN4CCC4CO)C(N)=O)cs3)nc2-c2csc(n2)C2COC(=O)c3c4c5c(cccc5n3O)COC(=O)C(OC3CC(C)(O)C(N(C)C)C(C)O3)C(OC4)C(NC(=O)c3csc1n3)c1nc(cs1)C(=O)N2 (stereo not drawn) [Example 84] | 0.5 (≈ 0.328 µM) | 0.25 (≈ 0.164 µM) | 0.125 (≈ 0.082 µM) |  |  |  |  |
| CCNCCN(CC)CC(NC(=O)c1csc(-c2nc3c(cc2O)-c2nc(cs2)C(=O)NC(C(C)O)C(=O)N/C(=C(\C)OC)c2nc(cs2)C(=O)NC2c4nc(cs4)C(=O)NC(COC(=O)c4c5c6c(cccc6n4O)COC(=O)C(O[C@H]4C[C@](C)(O)[C@H](N(C)C)[C@H](C)O4)C2OC5)c2nc-3cs2)n1)C(N)=O (stereo partly drawn) [Example 25] |  |  |  | 1.0 (≈ 0.644 µM) | 2.0 (≈ 1.29 µM) | 0.0005 (≈ 0.000322 µM) |  |
| CO/C(C)=C1/NC(=O)C(C(C)O)NC(=O)c2csc(n2)-c2cc(O)c(-c3nc(C(=O)NC(CNCCCN4CCN(C)CC4)C(N)=O)cs3)nc2-c2csc(n2)C2COC(=O)c3c4c5c(cccc5n3O)COC(=O)C(O[C@H]3C[C@](C)(O)[C@H](N(C)C)[C@H](C)O3)C(OC4)C(NC(=O)c3csc1n3)c1nc(cs1)C(=O)N2 (stereo partly drawn) [Example 51] | 0.25 (≈ 0.157 µM) | 4.0 (≈ 2.51 µM) | 0.015 (≈ 0.00941 µM) |  |  |  |  |
| COCC(Cn1ccnc1)SCC(NC(=O)c1csc(-c2nc3c(cc2O)-c2nc(cs2)C(=O)NC(C(C)O)C(=O)NC(=C(C)OC)c2nc(cs2)C(=O)NC2c4nc(cs4)C(=O)NC(COC(=O)c4c5c6c(cccc6n4O)COC(=O)C(OC4CC(C)(O)C(N(C)C)C(C)O4)C2OC5)c2nc-3cs2)n1)C(N)=O (stereo not drawn) [Example 80] |  |  |  | 0.25 (≈ 0.155 µM) | 0.125 (≈ 0.0776 µM) | 0.03 (≈ 0.0186 µM) |  |
| CO/C(C)=C1/NC(=O)C(C(C)O)NC(=O)c2csc(n2)-c2cc(O)c(-c3nc(C(=O)NC(CSC(CC(=O)O)C(=O)O)C(N)=O)cs3)nc2-c2csc(n2)C2COC(=O)c3c4c5c(cccc5n3O)COC(=O)C(O[C@H]3C[C@](C)(O)[C@H](N(C)C)[C@H](C)O3)C(OC4)C(NC(=O)c3csc1n3)c1nc(cs1)C(=O)N2 (stereo partly drawn) [Example 42] |  |  |  | 4.0 (≈ 2.52 µM) | 4.0 (≈ 2.52 µM) | 0.25 (≈ 0.157 µM) |  |
| COC(C)=C1NC(=O)C(C(C)O)NC(=O)c2csc(n2)-c2cc(O)c(-c3nc(C(=O)NC(CN(C)CCCn4ccnc4)C(N)=O)cs3)nc2-c2csc(n2)C2COC(=O)c3c4c5c(cccc5n3O)COC(=O)C(O)C(OC4)C(NC(=O)c3csc1n3)c1nc(cs1)C(=O)N2 (stereo not drawn) [Example 97] |  |  |  | 0.125 (≈ 0.0889 µM) | 0.25 (≈ 0.178 µM) | 0.125 (≈ 0.0889 µM) |  |
| CO/C(C)=C1/NC(=O)C(C(C)O)NC(=O)c2csc(n2)-c2cc(O)c(-c3nc(C(=O)NC(CN(C)CCc4c[nH]cn4)C(N)=O)cs3)nc2-c2csc(n2)C2COC(=O)c3c4c5c(cccc5n3O)COC(=O)C(O[C@H]3C[C@](C)(O)[C@H](N(C)C)[C@H](C)O3)C(OC4)C(NC(=O)c3csc1n3)c1nc(cs1)C(=O)N2 (stereo partly drawn) [Example 56] | 0.25 (≈ 0.16 µM) | 0.5 (≈ 0.32 µM) | 0.125 (≈ 0.08 µM) |  |  |  |  |
| CO/C(C)=C1/NC(=O)C(C(C)O)NC(=O)c2csc(n2)-c2cc(O)c(-c3nc(C(=O)NC(CNCCCCN)C(N)=O)cs3)nc2-c2csc(n2)C2COC(=O)c3c4c5c(cccc5n3O)COC(=O)C(O[C@H]3C[C@](C)(O)[C@H](N(C)C)[C@H](C)O3)C(OC4)C(NC(=O)c3csc1n3)c1nc(cs1)C(=O)N2 (stereo partly drawn) [Example 11] |  |  |  | 2.0 (≈ 1.31 µM) | 8.0 (≈ 5.24 µM) | 0.5 (≈ 0.328 µM) |  |
| CO/C(C)=C1/NC(=O)C(C(C)O)NC(=O)c2csc(n2)-c2cc(O)c(-c3nc(C(=O)NC(CNCCNC(C)=O)C(N)=O)cs3)nc2-c2csc(n2)C2COC(=O)c3c4c5c(cccc5n3O)COC(=O)C(O[C@H]3C[C@](C)(O)[C@H](N(C)C)[C@H](C)O3)C(OC4)C(NC(=O)c3csc1n3)c1nc(cs1)C(=O)N2 (stereo partly drawn) [Example 16] |  |  |  | 1.0 (≈ 0.649 µM) | 4.0 (≈ 2.6 µM) | 0.125 (≈ 0.0812 µM) |  |
| CO/C(C)=C1/NC(=O)C(C(C)O)NC(=O)c2csc(n2)-c2cc(O)c(-c3nc(C(=O)NC(CSCCc4cnccn4)C(N)=O)cs3)nc2-c2csc(n2)C2COC(=O)c3c4c5c(cccc5n3O)COC(=O)C(O[C@H]3C[C@](C)(O)[C@H](N(C)C)[C@H](C)O3)C(OC4)C(NC(=O)c3csc1n3)c1nc(cs1)C(=O)N2 (stereo partly drawn) [Example 62] |  |  |  | 0.125 (≈ 0.0792 µM) | 0.25 (≈ 0.158 µM) | 0.015 (≈ 0.00951 µM) |  |
| COC(C)=C1NC(=O)C(C(C)O)NC(=O)c2csc(n2)-c2cc(O)c(-c3nc(C(=O)NC(CN(C)CCC(=O)Nc4ccncc4)C(N)=O)cs3)nc2-c2csc(n2)C2COC(=O)c3c4c5c(cccc5n3O)COC(=O)C(OC3CC(C)(O)C(N(C)C)C(C)O3)C(OC4)C(NC(=O)c3csc1n3)c1nc(cs1)C(=O)N2 (stereo not drawn) [Example 82] |  |  |  | 0.5 (≈ 0.309 µM) | 0.5 (≈ 0.309 µM) | 0.03 (≈ 0.0186 µM) |  |
| COCCOCCOCCN1CCN(CC(NC(=O)c2csc(-c3nc4c(cc3O)-c3nc(cs3)C(=O)NC(C(C)O)C(=O)NC(=C(C)OC)c3nc(cs3)C(=O)NC3c5nc(cs5)C(=O)NC(COC(=O)c5c6c7c(cccc7n5O)COC(=O)C(OC5CC(C)(O)C(N(C)C)C(C)O5)C3OC6)c3nc-4cs3)n2)C(N)=O)CC1 (stereo not drawn) [Example 72] | 4.0 (≈ 2.4 µM) | 4.0 (≈ 2.4 µM) | 0.5 (≈ 0.299 µM) |  |  |  |  |
| C/C=C1\NC(=O)C(C(C)O)NC(=O)c2csc(n2)-c2cc(O)c(-c3nc(C(=O)NC(CSCCN(CC)CC)C(N)=O)cs3)nc2-c2csc(n2)C2CSC(=O)c3[nH]c4cccc(c4c3C)COC(=O)C(O)CC(NC(=O)c3csc1n3)c1nc(cs1)C(=O)N2 (stereo not drawn) [Example 102] |  |  |  |  |  |  | MIC ([1]; Staphylococcus aureus, A15090, 18 h, read-out: MIC (μg/mL) against Staphylococcus aureus A15090): 0.125 µg/mL (≈ 0.0922 µM); MIC ([2]; Enterococcus faecalis, A20688, 18 h, read-out: MIC (μg/mL) against Enterococcus faecalis A20688): 0.25 µg/mL (≈ 0.184 µM); MIC ([3]; Streptococcus pneumoniae, A28272, 18 h, read-out: MIC (μg/mL) against Streptococcus pneumoniae A28272): 0.03 µg/mL (≈ 0.0221 µM) |
| COC(C)=C1NC(=O)C(C(C)O)NC(=O)c2csc(n2)-c2cc(O)c(-c3nc(C(=O)NC(CN4CCCC4C(C)(C)O)C(N)=O)cs3)nc2-c2csc(n2)C2COC(=O)c3c4c5c(cccc5n3O)COC(=O)C(OC3CC(C)(O)C(N(C)C)C(C)O3)C(OC4)C(NC(=O)c3csc1n3)c1nc(cs1)C(=O)N2 (stereo not drawn) [Example 89] |  |  |  | 0.003 (≈ 0.00191 µM) | 0.03 (≈ 0.0191 µM) | 0.007 (≈ 0.00447 µM) |  |
| CO/C(C)=C1/NC(=O)C(C(C)O)NC(=O)c2csc(n2)-c2cc(O)c(-c3nc(C(=O)NC(CN4CCN(CCN5CCOCC5)CC4)C(N)=O)cs3)nc2-c2csc(n2)C2COC(=O)c3c4c5c(cccc5n3O)COC(=O)C(O[C@H]3C[C@](C)(O)[C@H](N(C)C)[C@H](C)O3)C(OC4)C(NC(=O)c3csc1n3)c1nc(cs1)C(=O)N2 (stereo partly drawn) [Example 53] | 0.5 (≈ 0.305 µM) | 1.0 (≈ 0.611 µM) | 0.5 (≈ 0.305 µM) |  |  |  |  |
| CCOC(=O)CN1CCN(CC(NC(=O)c2csc(-c3nc4c(cc3O)-c3nc(cs3)C(=O)NC(C(C)O)C(=O)N/C(=C(\C)OC)c3nc(cs3)C(=O)NC3c5nc(cs5)C(=O)NC(COC(=O)c5c6c7c(cccc7n5O)COC(=O)C(O[C@H]5C[C@](C)(O)[C@H](N(C)C)[C@H](C)O5)C3OC6)c3nc-4cs3)n2)C(N)=O)CC1 (stereo partly drawn) [Example 36] |  |  |  | 0.06 (≈ 0.0373 µM) | 0.25 (≈ 0.155 µM) | 0.007 (≈ 0.00435 µM) |  |
| COCCOCCOCCOCCN1CCN(CC(NC(=O)c2csc(-c3nc4c(cc3O)-c3nc(cs3)C(=O)NC(C(C)O)C(=O)N/C(=C(\C)OC)c3nc(cs3)C(=O)NC3c5nc(cs5)C(=O)NC(COC(=O)c5c6c7c(cccc7n5O)COC(=O)C(O[C@H]5C[C@](C)(O)[C@H](N(C)C)[C@H](C)O5)C3OC6)c3nc-4cs3)n2)C(N)=O)CC1 (stereo partly drawn) [Example 69] | 0.5 (≈ 0.292 µM) | 4.0 (≈ 2.33 µM) | 0.25 (≈ 0.146 µM) |  |  |  |  |
| COC(C)=C1NC(=O)C(C(C)O)NC(=O)c2csc(n2)-c2cc(O)c(-c3nc(C(=O)NC(CN4CCN(c5cccnc5)CC4)C(N)=O)cs3)nc2-c2csc(n2)C2COC(=O)c3c4c5c(cccc5n3O)COC(=O)C(OC3CC(C)(O)C(N(C)C)C(C)O3)C(OC4)C(NC(=O)c3csc1n3)c1nc(cs1)C(=O)N2 (stereo not drawn) [Example 85] | 0.06 (≈ 0.0375 µM) | 0.25 (≈ 0.156 µM) | 0.007 (≈ 0.00437 µM) |  |  |  |  |
| CN[C@@H]1[C@H](C)O[C@@H](OC2C(=O)OCc3cccc4c3c3c(n4O)C(=O)OCC4NC(=O)c5csc(n5)C(NC(=O)c5csc(n5)/C(=C(/C)OC)NC(=O)C(C(C)O)NC(=O)c5csc(n5)-c5cc(O)c(-c6nc(C(=O)NC(CN(C)CCO)C(N)=O)cs6)nc5-c5csc4n5)C2OC3)C[C@]1(C)O (stereo partly drawn) [Example 99] | 0.03 (≈ 0.02 µM) | 0.125 (≈ 0.0834 µM) | 0.015 (≈ 0.01 µM) |  |  |  |  |
| CNC(=O)On1c2c3c4c(cccc41)COC(=O)C(OC1CC(C)(O)C(N(C)C)C(C)O1)C(OC3)C1NC(=O)c3csc(n3)/C(=C(/C)OC)NC(=O)C(C(C)O)NC(=O)c3csc(n3)-c3cc(O)c(-c4nc(C(=O)NC(CN(CCN(C)C)C(=O)NC)C(N)=O)cs4)nc3-c3csc(n3)C(COC2=O)NC(=O)c2csc1n2 (stereo not drawn) [Example 111] | 1.0 (≈ 0.61 µM) | 2.0 (≈ 1.22 µM) | 0.06 (≈ 0.0366 µM) |  |  |  |  |

From patent publication US20020065219A1, “Water soluble thiazolyl peptide derivatives” (priority 2000, published 2002)
